Structures are written as SMILES.

For test [1], the system named is Cabbage Looper (Trichoplusia ni, TRIPNI). Description: Bioassay on Cabbage Looper (CL), 128-well diet tray assay. The note with it: 168 h, 50 μg/cm^2 on artificial diet, second instar larvae, 25° C., five to seven days, average of eight wells, read-out: CL % Control (or Mortality) rating. The format is in vivo. The method, then: (§1) Example A: Bioassays on Beet Armyworm (Spodoptera exigua, LAPHEG) (“BAW”) and Cabbage Looper (Trichoplusia ni, TRIPNI) (“CL”)
(§2) Certain molecules disclosed in this document were tested against BAW and CL using procedures described in the following examples. In the reporting of the results, the “BAW & CL Rating Table” was used (See Table Section).
Bioassays on CL were conducted using a 128-well diet tray assay. One to five second instar CL larvae were placed in each well (3 mL) of the diet tray that had been previously filled with 1 mL of artificial diet to which 50 μg/cm^2 of the test molecule (dissolved in 50 μL of 90:10 acetone-water mixture) had been applied (to each of eight wells) and then allowed to dry. Trays were covered with a clear self-adhesive cover, vented to allow gas exchange, and held at 25° C., 14:10 light-dark for five to seven days. Percent mortality was recorded for the larvae in each well; activity in the eight wells was then averaged. The results are indicated in the table entitled “Table ABC: Biological Results” (See Table Section).

For test [2], the system named is Beet Armyworm (Spodoptera exigua, LAPHEG). The test can be described thus: Bioassay on Beet Armyworm (BAW), 128-well diet tray assay. Format: in vivo. To be noted: 168 h, 50 μg/cm^2 on artificial diet, second instar larvae, 25° C., five to seven days, average of eight wells, read-out: BAW % Control (or Mortality) rating. The method, then:
as §1, §2
Bioassays on BAW were conducted using a 128-well diet tray assay. One to five second instar BAW larvae were placed in each well (3 mL) of the diet tray that had been previously filled with 1 mL of artificial diet to which 50 μg/cm^2 of the test molecule (dissolved in 50 μL of 90:10 acetone-water mixture) had been applied (to each of eight wells) and then allowed to dry. Trays were covered with a clear self-adhesive cover, vented to allow gas exchange, and held at 25° C., 14:10 light-dark for five to seven days. Percent mortality was recorded for the larvae in each well; activity in the eight wells was then averaged. The results are indicated in the table entitled “Table ABC: Biological Results” (See Table Section).

With `Cc1ccc(C(C)C)c(N2C(=O)CS/C2=N\C(=O)Nc2ccc(CCc3ncn(-c4ccc(OC(F)(F)F)cc4)n3)cc2Cl)c1` [F18, (Z)-1-(2-Chloro-4-(2-(1-(4-(trifluoromethoxy)phenyl)-1H-1,2,4-triazol-3-yl)ethyl)phenyl)-3-(3-(2-isopropyl-5-methylphenyl)-4-oxothiazolidin-2-ylidene)urea], the mortality at 50 µg/cm2 in test [1] and in test [2] was 50 to 100% throughout.

As for `Cc1ccc(C(C)C)c(N2C(=O)CS/C2=N\C(=O)Nc2ccc(/C=C/c3ncn(-c4ncc(C(F)(F)F)cc4Cl)n3)cc2)c1` [F72, 1-(4-((E)-2-(1-(3-chloro-5-(trifluoromethyl)pyridin-2-yl)-1H-1,2,4-triazol-3-yl)vinyl)phenyl)-3-((Z)-3-(2-isopropyl-5-methylphenyl)-4-oxothiazolidin-2-ylidene)urea], the mortality at 50 µg/cm2 in test [1] and in test [2] was 50 to 100% in each case.

Consider `Cc1ccc(C(C)C)c(N2C(=O)CS/C2=N\C(=O)Nc2ccc(CCc3ncn(-c4ccc(OC(F)(F)F)cc4)n3)c(C)c2)c1` [F2, (Z)-1-(3-(2-Isopropyl-5-methylphenyl)-4-oxothiazolidin-2-ylidene)-3-(3-methyl-4-(2-(1-(4-(trifluoromethoxy)phenyl)-1H-1,2,4-triazol-3-yl)ethyl)phenyl)urea], for which the mortality at 50 µg/cm2 in test [1] and in test [2] was 50 to 100% throughout.

For the compound `Cc1ccc(OC(C)C)c(N2C(=O)CS/C2=N\C(=O)Nc2ccc(/C=C/c3ncn(-c4ccc(OC(F)(F)F)cc4)n3)cc2)c1` [F49, 1-((Z)-3-(2-Isopropoxy-5-methylphenyl)-4-oxothiazolidin-2-ylidene)-3-(4-((E)-2-(1-(4-(trifluoromethoxy)phenyl)-1H-1,2,4-triazol-3-yl)vinyl)phenyl)urea], the mortality at 50 µg/cm2 in test [1] and in test [2] was 50 to 100% in each case.

For the compound `CCC(C)Oc1ccc(C)cc1N1C(=O)CS/C1=N\C(=O)Nc1ccc(CCc2ncn(-c3ccc(OC(F)(F)F)cc3)n2)cc1F` (stereo not shown) [F24, (Z)-1-(3-(2-(sec-Butoxy)-5-methylphenyl)-4-oxothiazolidin-2-ylidene)-3-(2-fluoro-4-(2-(1-(4-(trifluoromethoxy)phenyl)-1H-1,2,4-triazol-3-yl)ethyl)phenyl)urea], the mortality at 50 µg/cm2 in test [1] and in test [2] was 50 to 100% in each case.

In the case of `Cc1ccc(C2CC2(F)F)c(N2C(=O)CS/C2=N\C(=O)Nc2ccc(/C=C/c3ncn(-c4ccc(OC(F)(F)F)cc4)n3)cc2F)c1` (stereo not shown) [F67, 1-((Z)-3-(2-(2,2-difluorocyclopropyl)-5-methylphenyl)-4-oxothiazolidin-2-ylidene)-3-(2-fluoro-4-((E)-2-(1-(4-(trifluoromethoxy)phenyl)-1H-1,2,4-triazol-3-yl)vinyl)phenyl)urea], the mortality at 50 µg/cm2 in test [1] and in test [2] was 50 to 100% each time.

Turning to `Cc1ccc(C(C)C)c(N2C(=O)CS/C2=N\C(=O)Nc2ccc(/C=C/c3ncn(-c4ccc(OC(F)(F)F)cc4)n3)cn2)c1` [F70, 1-((Z)-3-(2-isopropyl-5-methylphenyl)-4-oxothiazolidin-2-ylidene)-3-(5-((E)-2-(1-(4-(trifluoromethoxy)phenyl)-1H-1,2,4-triazol-3-yl)vinyl)pyridin-2-yl)urea], the mortality at 50 µg/cm2 in test [1] and in test [2] was 50 to 100% throughout.

Take `Cc1ccc(C(C)C)c(N2C(=O)CS/C2=N\C(=O)Nc2c(F)cc(CCc3ncn(-c4ccc(OC(F)(F)F)cc4)n3)cc2F)c1` [F19, (Z)-1-(2,6-Difluoro-4-(2-(1-(4-(trifluoromethoxy)phenyl)-1H-1,2,4-triazol-3-yl)ethyl)phenyl)-3-(3-(2-isopropyl-5-methylphenyl)-4-oxothiazolidin-2-ylidene)urea]: the mortality at 50 µg/cm2 in test [1] and in test [2] was 50 to 100% throughout.

Usually mortality stands for the percentage killed.
